Laboratory results reported in US11931424B2, “Combination MCL-1 inhibitors with anti-body drug conjugates” (Gilead Sciences, Inc., priority 2021, dated 2024).

Tested on: panel of breast cancer cell lines
Experiment: Compound A with targeted agents and chemotherapies, 72-hour in vitro proliferation assays
Type: cell-based
Settings: 72-hour proliferation
[1] = AU565 cell line, compound A × partner
[2] = BT-20 cell line, compound A × partner
[3] = BT-474 cell line, compound A × partner
[4] = BT-549 cell line, compound A × partner
[5] = CAL-51 cell line, compound A × partner
[6] = CAL-85-1 cell line, compound A × partner
[7] = CAL-120 cell line, compound A × partner
[8] = CAL-148 cell line, compound A × partner
[9] = CAMA-1 cell line, compound A × partner
[10] = DU-4475 cell line, compound A × partner
[11] = EVSA-T cell line, compound A × partner
[12] = HCC1143 cell line, compound A × partner
[13] = MCF7 cells, Compound A × partner agent
[14] = MDA-MB-175-VII cells, Compound A × partner agent
[15] = MDA-MB-231 cells, Compound A × partner agent
[16] = MDA-MB-361 cells, Compound A × partner agent
[17] = MDA-MB-436 cells, Compound A × partner agent
[18] = MDA-MB-453 cells, Compound A × partner agent
[19] = MDA-MB-468 cells, Compound A × partner agent
[20] = SK-BR-3 cells, Compound A × partner agent
[21] = SUM159PT cells, combination of compound A with the named agent
[22] = T47D cells, combination of compound A with the named agent
[23] = ZR-75-1 cells, combination of compound A with the named agent
[24] = ZR-75-30 cells, combination of compound A with the named agent

SMILES: CC(=O)O[C@@]12CO[C@@H]1C[C@H](O)[C@@]1(C)C(=O)[C@H](O)C3=C(C)[C@@H](OC(=O)[C@H](O)[C@@H](NC(=O)OC(C)(C)C)c4ccccc4)C[C@@](O)([C@@H](OC(=O)c4ccccc4)[C@H]21)C3(C)C [Docetaxel]
- Bliss Volume [1]: 16.97
- HSA volume [1]: 3.68
- Loewe Volume [1]: 1.71
- Synergy Score [1]: 7.58
- Bliss Volume [2]: 27.23
- HSA volume [2]: 21.05
- Loewe Volume [2]: 19.90
- Synergy Score [2]: 39.72
- Bliss Volume [3]: 16.39
- HSA volume [3]: 9.80
- Loewe Volume [3]: 8.62
- Synergy Score [3]: 14.51
- Bliss Volume [4]: 22.57
- HSA volume [4]: 22.13
- Loewe Volume [4]: 22.04
- Synergy Score [4]: 39.66
- Bliss Volume [5]: 2.26
- HSA volume [5]: 3.35
- Loewe Volume [5]: 3.12
- Synergy Score [5]: 4.88
- Bliss Volume [6]: 13.68
- HSA volume [6]: 11.86
- Loewe Volume [6]: 11.10
- Synergy Score [6]: 19.64
- Bliss Volume [7]: 8.92
- HSA volume [7]: 7.98
- Loewe Volume [7]: 8.39
- Synergy Score [7]: 11.63
- Bliss Volume [8]: 15.94
- HSA volume [8]: 13.90
- Loewe Volume [8]: 12.92
- Synergy Score [8]: 28.74
- Bliss Volume [9]: 29.57
- HSA volume [9]: 6.98
- Loewe Volume [9]: 4.88
- Synergy Score [9]: 13.30
- Bliss Volume [10]: 19.28
- HSA volume [10]: 13.68
- Loewe Volume [10]: 12.74
- Synergy Score [10]: 20.30
- Bliss Volume [11]: 32.24
- HSA volume [11]: 12.42
- Loewe Volume [11]: 12.22
- Synergy Score [11]: 24.87
- Bliss Volume (HCC38, compound A × partner): 23.64
- HSA volume (HCC38, compound A × partner): 16.36
- Loewe Volume (HCC38, compound A × partner): 14.95
- Synergy Score (HCC38, compound A × partner): 29.56
- Bliss Volume (HCC70, compound A × partner): 25.33
- HSA volume (HCC70, compound A × partner): 22.90
- Loewe Volume (HCC70, compound A × partner): 20.81
- Synergy Score (HCC70, compound A × partner): 39.82
- Bliss Volume [12]: 11.00
- HSA volume [12]: 9.41
- Loewe Volume [12]: 8.32
- Synergy Score [12]: 18.84
- Bliss Volume (HCC1569, compound A × partner): 6.58
- HSA volume (HCC1569, compound A × partner): 8.56
- Loewe Volume (HCC1569, compound A × partner): 9.52
- Synergy Score (HCC1569, compound A × partner): 11.65
- Bliss Volume (HCC1806, compound A × partner): 17.46
- HSA volume (HCC1806, compound A × partner): 12.45
- Loewe Volume (HCC1806, compound A × partner): 12.66
- Synergy Score (HCC1806, compound A × partner): 25.50
- Bliss Volume (HCC1937, compound A × partner): 10.96
- HSA volume (HCC1937, compound A × partner): 11.56
- Loewe Volume (HCC1937, compound A × partner): 11.67
- Synergy Score (HCC1937, compound A × partner): 11.60
- Bliss Volume (HCC1954, compound A × partner): 25.28
- HSA volume (HCC1954, compound A × partner): 14.25
- Loewe Volume (HCC1954, compound A × partner): 12.73
- Synergy Score (HCC1954, compound A × partner): 25.34
- Bliss Volume (HCC2218, compound A × partner): 11.69
- HSA volume (HCC2218, compound A × partner): 6.53
- Loewe Volume (HCC2218, compound A × partner): 5.20
- Synergy Score (HCC2218, compound A × partner): 10.71
- Bliss Volume (HDQ-P1, compound A × partner): 7.85
- HSA volume (HDQ-P1, compound A × partner): 8.96
- Loewe Volume (HDQ-P1, compound A × partner): 8.67
- Synergy Score (HDQ-P1, compound A × partner): 11.43
- Bliss Volume (HMC-1-8, compound A × partner): 31.00
- HSA volume (HMC-1-8, compound A × partner): 8.49
- Loewe Volume (HMC-1-8, compound A × partner): 7.43
- Synergy Score (HMC-1-8, compound A × partner): 16.44
- Bliss Volume (JIMT-1, compound A × partner): 4.03
- HSA volume (JIMT-1, compound A × partner): 4.64
- Loewe Volume (JIMT-1, compound A × partner): 3.81
- Synergy Score (JIMT-1, compound A × partner): 6.23
- Bliss Volume (KPL-1, compound A × partner): 5.18
- HSA volume (KPL-1, compound A × partner): 8.06
- Loewe Volume (KPL-1, compound A × partner): 7.67
- Synergy Score (KPL-1, compound A × partner): 10.20
- Bliss Volume [13]: 14.35
- HSA volume [13]: 11.99
- Loewe Volume [13]: 11.64
- Synergy Score [13]: 17.93
- Bliss Volume [14]: 16.97
- HSA volume [14]: 10.22
- Loewe Volume [14]: 12.14
- Synergy Score [14]: 15.31
- Bliss Volume [15]: 5.15
- HSA volume [15]: 7.49
- Loewe Volume [15]: 6.89
- Synergy Score [15]: 11.57
- Bliss Volume [16]: −0.86
- HSA volume [16]: −2.31
- Loewe Volume [16]: −3.71
- Synergy Score [16]: 4.61
- Bliss Volume [17]: 1.49
- HSA volume [17]: 1.67
- Loewe Volume [17]: 1.48
- Bliss Volume [18]: 30.81
- HSA volume [18]: 22.87
- Loewe Volume [18]: 21.87
- Synergy Score [18]: 44.90
- Bliss Volume [19]: 28.07
- HSA volume [19]: 11.28
- Loewe Volume [19]: 10.11
- Synergy Score [19]: 20.73
- Bliss Volume [20]: 14.70
- HSA volume [20]: 4.18
- Loewe Volume [20]: 2.95
- Synergy Score [20]: 7.33
- Bliss Volume [21]: 18.66
- HSA volume [21]: 18.88
- Loewe Volume [21]: 17.94
- Synergy Score [21]: 33.03
- Bliss Volume [22]: −1.55
- HSA volume [22]: 2.30
- Loewe Volume [22]: 1.76
- Synergy Score [22]: 6.53
- Bliss Volume [23]: 16.15
- HSA volume [23]: 16.66
- Loewe Volume [23]: 17.29
- Synergy Score [23]: 25.42
- Bliss Volume [24]: 6.48
- HSA volume [24]: 3.70
- Loewe Volume [24]: 2.62
- Synergy Score [24]: 8.08
